Assay results reported in patent US11299447B2, “Method for isolating a carboxylic acid from an aqueous solution” (PURAC BIOCHEM BV, priority 2011, dated 2022).
Each block holds one compound with its values, some of them ahead of it.

Columns and labels:
Assay type in all cases: physicochemical
[1] = Extraction of different types of polycarboxylic acids; settings: for DBE: distribution ratio in back extraction; for DFE: distribution ratio in forward extraction, feed 15 wt. % MgCl2
From the text: These tables also give the concentration ratio, which is the ratio between the acid concentration in the product and the acid concentration in the feed.

[2] = Lactic acid distribution ratio MIBK/aqueous MgCl2 solution; settings: initial lactic acid 20 wt %
From the text: Forward extraction and back extraction as used in the method of the invention are based on the difference in solubility of the carboxylic acid in water and the organic solvent at different temperatures. The solubility of a compound in one solvent relative to another solvent can be expressed in terms of the distribution ratio (DR). This ratio gives an indication how a compound will be distributed over the aqueous phase (e.g. the aqueous mixture) and the organic phase (e.g. the organic liquid) in a two-phase system at equilibrium. The distribution ratio may be defined as the ratio of the carboxylic acid concentration dissolved in the organic phase ([carboxylic acid]organic) over the concentration of the carboxylic acid dissolved in water ([carboxylic acid]water), provided that the two phases are in equilibrium with each other: DR=[carboxylic acid]organic/[carboxylic acid]water (1)
The resulting two phase system was stirred at 20° C. or 60° C. for 30 minutes with sufficient speed to ensure that both phases are well dispersed. Hereafter, the stirring is stopped, the phases were allowed to separate and samples were taken from both phases. The concentration of lactic acid (wt %) in these samples was determined by potentiometric titration. Hereafter the distribution ratio was calculated as the ratio of the lactic acid concentration (wt %) in the MIBK organic solvent phase divided by the lactic acid concentration (wt %) in the aqueous phase.

[3] = Stability of extraction solvent in contact with 2-hydroxy butyric acid feed solution (gas chromatography); settings: 60° C.
Method: This experiment was conducted to compare the stability of two solvents, MIBK and Isoamyl alcohol in contact with the 2-hydroxy butyric acid feed solution prepared by adding 340 g of crystalline hydroxy butyric acid to 720 g water and mixing to complete dissolution. The thus prepared feed solution comprised 32 wt % of hydroxy butyric acid.
For each solvent a closed glass reactor was filled with 20 g of solvent and 20 g of the hydroxy butyric acid feed solution, put in an oven to maintain a temperature of 60° C. and shaken continuously. After 3 hours, 24 hours (1 day) and 168 hours (1 week) the shaking was stopped for 1 hour to allow the phases to settle, a sample was taken from the solvent top layer, and the composition of the solvent top layer analyzed by gas chromatography.

[4] = Solvent solubility in aqueous MgCl2 solution (gas chromatography of aqueous phase)
Method: Hereafter, the stirring was stopped, the phases were allowed to separate and a sample was taken from the aqueous bottom phase. The concentration of solvent in this sample was determined by gas chromatography.

[5] = Table 2.2, MgCl2 0 wt %, 20° C.
[6] = Table 2.2, MgCl2 15 wt %, 20° C.
[7] = Table 2.2, MgCl2 30 wt %, 20° C.

Lactic acid distribution ratio ([2]; MgCl2 0 wt %, 20° C.): 0.16 wt %/wt %
Lactic acid distribution ratio ([2]; MgCl2 0 wt %, 60° C.): 0.19 wt %/wt %
Lactic acid distribution ratio ([2]; MgCl2 10.5 wt %, 20° C.): 0.33 wt %/wt %
Lactic acid distribution ratio ([2]; MgCl2 10.5 wt %, 60° C.): 0.37 wt %/wt %
Lactic acid distribution ratio ([2]; MgCl2 16.0 wt %, 20° C.): 0.49 wt %/wt %
Lactic acid distribution ratio ([2]; MgCl2 16.0 wt %, 60° C.): 0.56 wt %/wt %
Compound: CC(O)C(=O)O (stereo not shown) [lactic acid]

MIBK solubility ([4]; MgCl2 0 wt %, 20° C.): 1.8 wt %
MIBK solubility ([4]; MgCl2 0 wt %, 60° C.): 1.4 wt %
MIBK solubility ([4]; MgCl2 15 wt %, 20° C.): 0.48 wt %
MIBK solubility ([4]; MgCl2 15 wt %, 60° C.): 0.20 wt %
MIBK solubility ([4]; MgCl2 30 wt %, 20° C.): 0.17 wt %
MIBK solubility ([4]; MgCl2 30 wt %, 60° C.): 0.11 wt %
Solvent solubility [4, 5]: 1.8 wt %
Solvent solubility [4, 6]: 0.5 wt %
Solvent solubility [4, 7]: 0.1 wt %
Compound: CC(=O)CC(C)C [MIBK, methyl-isobutylketone]
changes in the purity of the solvent ([3]; 20 g solvent + 20 g 32 wt % hydroxy butyric acid feed, after 168 hours): no changes in the purity of the MIBK could be detected

isoamylhydroxybutyrate formed in solvent layer ([3]; 20 g solvent + 20 g 32 wt % hydroxy butyric acid feed, after 3 hours): 14.3 area %
isoamylhydroxybutyrate concentration in solvent layer ([3]; after 24 hours): 21.5 area %
isoamylhydroxybutyrate concentration in solvent layer ([3]; after 168 hours): 21.5 area %
Solvent solubility [4, 5]: 2.8 wt %
Solvent solubility [4, 6]: 1.5 wt %
Solvent solubility [4, 7]: 0.6 wt %
Compound: CC(C)CCO [Isoamyl alcohol, reference compound]

Continued, compound first:

Compound: O=C(O)/C=C/C(=O)O [Fumaric acid, fumaric acid]
DFE/DBE [1]: 7.29
DBE [1]: 0.24
DFE [1]: 1.75

Compound: CC(C)OC(C)C [Diisopropyl ether, reference compound]
Solvent solubility [4, 5]: 1.0 wt %
Solvent solubility [4, 6]: 0.4 wt %
Solvent solubility [4, 7]: 0.7 wt %

Compound: C=C(CC(=O)O)C(=O)O [Itaconic acid, itaconic acid]
DFE/DBE [1]: 2.64
DBE [1]: 1.07
DFE [1]: 2.83
